Tests used:
Type in all cases: in vivo
[1] = test system: Oilseed Rape; test: Test C preemergence: oilseed rape; details: 31 g ai/ha, scale 0 (no effect) to 100 (complete control)
[2] = test system: nutsedge, yellow (yellow nutsedge, Cyperus esculentus); test: Test F pre-/postemergence: nutsedge, yellow; details: Preemergence
Method in brief: (§1)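 Visual response scores, 0 meaning no effect and 100 complete control, were assigned against untreated controls 14 to 21 days after treatment. Test chemicals in a surfactant-containing non-phytotoxic solvent were applied preemergence to seeded silt loam soil or postemergence to 2–18 cm plants in peat-based medium.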

[3] = test system: arrowleaf sida (Sida rhombifolia); test: Test F pre-/postemergence: arrowleaf sida
Method in brief: as §1

[4] = 16 g ai/ha, scale 0 to 100, 0 no effect, 100 complete control
[5] = 31 g ai/ha, scale 0 to 100, 0 no effect, 100 complete control
[6] = Postemergence, 250 g ai/ha, scale 0 to 100
[7] = Postemergence, 31 g ai/ha, scale 0 to 100
[8] = Postemergence, 125 g ai/ha, scale 0 to 100
[9] = Preemergence, 16 g ai/ha, scale 0 to 100, 0 no effect, 100 complete control
[10] = Preemergence, 31 g ai/ha, scale 0 to 100, 0 no effect, 100 complete control
[11] = Preemergence, 62 g ai/ha, scale 0 to 100
[12] = Preemergence, 125 g ai/ha, scale 0 to 100
[13] = Preemergence, 250 g ai/ha, scale 0 to 100

Row | SMILES | Plant response rating, Oilseed Rape [1] | Plant response rating, Nutsedge, Yellow [2, 4] | Plant response rating, Nutsedge, Yellow [2, 5] | Plant response rating, Nutsedge, Yellow ([2]; 125 g ai/ha, scale 0 to 100) | Plant response rating, Nutsedge, Yellow ([2]; 250 g ai/ha, scale 0 to 100) | Plant response rating, Arrowleaf Sida [3, 6] | Plant response rating, Arrowleaf Sida ([3]; Postemergence, 16 g ai/ha, scale 0 to 100) | Plant response rating, Arrowleaf Sida [3, 7] | Plant response rating, Arrowleaf Sida ([3]; Postemergence, 62 g ai/ha, scale 0 to 100) | Plant response rating, Arrowleaf Sida [3, 8] | Plant response rating, Arrowleaf Sida [3, 9] | Plant response rating, Arrowleaf Sida [3, 10] | Plant response rating, Arrowleaf Sida [3, 11] | Plant response rating, Arrowleaf Sida [3, 12] | Plant response rating, Arrowleaf Sida [3, 13]
1 | CCc1nn(-c2ccc(C(F)(F)F)cc2)nc1Oc1ccnc(C(F)(F)F)c1 [Compound 169] | 50 | 0 | 20 | 25 | 25 | 50 | 20 | 20 | 20 | 30 | 0 | 0 | 0 | 5 | 5
2 | CCc1nn(-c2ccc(F)c(F)c2)nc1Oc1ccnc(C(F)(F)F)c1 [Compound 171] | 0 | 0 | 0 | 0 | 0 |  |  |  |  |  | 0 | 0 | 15 | 30 | 60
3 | CCCc1nn(-c2ccc(F)c(F)c2)nc1Oc1ccnc(C(F)(F)F)c1 [Compound 172] | 60 |  | 25 | 25 | 25 | 100 |  | 65 |  | 90 |  | 30 |  | 95 | 100
